Reference: ChEMBL document CHEMBL1123241, “Alkyl-substituted thiolo-, thiono-, and dithio-gamma-butyrolactones: new classes of convulsant and anticonvulsant agents” (1986)

Columns and labels:
Assay type in all cases: functional
[1] = tested on: Mus musculus; test: Compound was evaluated for anticonvulsant activity against PTZ-induced clonic seizures at 62.5 mg/kg dose; 4/4
[2] = tested on: Mus musculus; test: Compound was evaluated for anticonvulsant activity against PTZ-induced clonic seizures at the 125 mg/kg dose; 4/4
[3] = tested on: Mus musculus; test: Compound was evaluated for anticonvulsant activity against PTZ-induced clonic seizures at the 250 mg/kg dose; 4/4
[4] = tested on: Mus musculus; test: Compound was evaluated for anticonvulsant activity against PTZ-induced tonic seizures at the 250 mg/kg dose; 4/4
[5] = tested on: Mus musculus; test: Compound was evaluated for anticonvulsant activity against PTZ-induced tonic seizures at the 62.5 mg/kg dose; 4/4
[6] = tested on: Mus musculus; test: Compound was evaluated for anticonvulsant activity against PTZ-induced tonic seizures at the 125 mg/kg dose; 4/4
[7] = tested on: Mus musculus; test: Compound was evaluated for anticonvulsant activity against PTZ-induced clonic seizures at the 100 mg/kg dose; 5/5
[8] = tested on: Mus musculus; test: Compound was evaluated for anticonvulsant activity against PTZ-induced clonic seizures at the 500 mg/kg dose; 3/5
[9] = tested on: Mus musculus; test: Compound was evaluated for anticonvulsant activity against PTZ-induced tonic seizures at the 100 mg/kg dose; 5/5
[10] = tested on: Mus musculus; test: Compound was evaluated for anticonvulsant activity against PTZ-induced tonic seizures at the 500 mg/kg dose; 1/5
[11] = tested on: Mus musculus; test: Compound was evaluated for anticonvulsant activity against PTZ-induced clonic seizures at the 250 mg/kg dose; 3/5
[12] = tested on: Mus musculus; test: Compound was evaluated for anticonvulsant activity against PTZ-induced tonic seizures at the 250 mg/kg dose; 3/5

Q: With CCC1(C)CCOC1=O (configuration not stated) as the compound, how does the “Mean time to seizure” value [1] read?
A: 150 s

Q: What about the “Mean time to seizure” value [2] of the same compound?
A: 365 s

Q: And the “Mean time to seizure” value [3]?
A: 163 s

Q: What about the “Mean time to seizure” value [4] of the same compound?
A: 844 s

Q: And the “Mean time to seizure” value [5]?
A: 1015 s

Q: What about the “Mean time to seizure” value [6] of the same compound?
A: 1078 s

Q: CCC1(C)CCSC1=S (configuration not stated) was tested. Which “Mean time to seizure” value [7] did it give?
A: 87 s

Q: And the “Mean time to seizure” value [8]?
A: 218 s

Q: What about the “Mean time to seizure” value [9] of the same compound?
A: 728 s

Q: And the “Mean time to seizure” value [10]?
A: 1200 s

Q: Which “Mean time to seizure” value [11] does the source give for CCC1(C)CCOC1=S (configuration not stated) here?
A: 155 s

Q: What about the “Mean time to seizure” value [12] of the same compound?
A: 341 s
